Measurements from patent publication US9695155B2, “Herbicidal substituted pyrimidinyloxy benzene compounds” (E. I. DU PONT DE NEMOURS AND COMPANY, priority 2013, dated 2017).

Assays:
Heteranthera limosa = assay: Test B flooded paddy test; assay type: in vivo; details: Flood, 250 g ai/ha; 0 to 100 scale where 0 is no effect and 100 is complete control
Summary of the method: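 Evaluation is visual, against untreated controls, 13 to 15 days after treatment. Before treatment, plants reached the 2-leaf stage; pots were then flooded 3 cm deep, compound was added to the water, and that level was maintained. Ratings run 0 to 100, with 100 meaning complete control.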

giant foxtail [1] = assay: Test A postemergence; assay type: in vivo, Setaria faberii; details: 0 to 100 scale where 0 is no effect and 100 is complete control; for Foxtail, Giant plant response rating: 125 g ai/ha; for Plant response rating, Foxtail, Giant: 500 g ai/ha
Summary of the method: (§1)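 Visual 0–100 rating (100 = complete control) taken about 10 d post-treatment relative to untreated checks. Preemergence: directed soil spray on sown loam/sand pots. Postemergence: seedlings 2–10 cm, 1–2 leaf. Non-phytotoxic solvent formulation with surfactant.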

morningglory = assay: Test A postemergence; assay type: in vivo, Ipomoea spp.; details: 0 to 100 scale where 0 is no effect and 100 is complete control; for Morningglory plant response rating: 125 g ai/ha; for Plant response rating, Morningglory: 500 g ai/ha
Summary of the method: as §1

Italian ryegrass [2] = assay: Test C preemergence; assay type: in vivo, Lolium multiflorum; details: for Ryegrass, Italian plant response rating: preemergence
Summary of the method: (§2)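 Plants were kept under greenhouse conditions for 13–15 days following spray. Pre-emergent application went to soil (loam–sand), post-emergent to foliage at 1–4 leaves. Evaluation: visual, percent control against untreated checks.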

velvetleaf = assay: Test C preemergence; assay type: in vivo, Abutilon theophrasti; details: for Velvetleaf plant response rating: preemergence
Summary of the method: as §2

pigweed = assay: Test A postemergence; assay type: in vivo, Amaranthus retroflexus; details: 0 to 100 scale where 0 is no effect and 100 is complete control; for Pigweed plant response rating: 125 g ai/ha; for Plant response rating, Pigweed: 500 g ai/ha
Summary of the method: as §1

soybean = assay: Test C postemergence; assay type: in vivo, Glycine max; details: for Plant response rating (0 to 100), Soybean: 16 g ai/ha, 0 is no effect, 100 is complete control; for Soybean plant response rating: 31 g ai/ha; for Soybean plant response rating / Plant response rating, Soybean: scale 0 to 100 (0 no effect, 100 complete control)
Summary of the method: as §2

blackgrass = assay: Test C preemergence; assay type: in vivo, Alopecurus myosuroides; details: for Blackgrass plant response rating: preemergence; for Plant response rating, Blackgrass: Preemergence, scale 0 to 100, 0 no effect, 100 complete control
Summary of the method: as §2

barnyardgrass [3] = assay: Test A postemergence; assay type: in vivo, Echinochloa crus-galli; details: 0 to 100 scale where 0 is no effect and 100 is complete control; for Barnyardgrass plant response rating: 125 g ai/ha; for Plant response rating, Barnyardgrass: 500 g ai/ha
Summary of the method: as §1

barnyardgrass [4] = assay: Test C preemergence; assay type: in vivo, Echinochloa crus-galli; details: for Barnyardgrass plant response rating: preemergence; for Plant response rating, Barnyardgrass: Preemergence, scale 0 to 100, 0 no effect, 100 complete control
Summary of the method: as §2

wheat, winter = assay: Test C preemergence; assay type: in vivo, Triticum aestivum; details: for Wheat plant response rating: preemergence
Summary of the method: as §2

johnsongrass = assay: Test C postemergence; assay type: in vivo, Sorghum halepense; details: for Plant response rating (0 to 100), Johnsongrass: 16 g ai/ha, 0 is no effect, 100 is complete control; for Johnsongrass plant response rating: 31 g ai/ha; for Johnsongrass plant response rating / Plant response rating, Johnsongrass: scale 0 to 100 (0 no effect, 100 complete control)
Summary of the method: as §2

Italian ryegrass [5] = assay: Test C postemergence; assay type: in vivo, Lolium multiflorum; details: for Plant response rating (0 to 100), Ryegrass, Italian: 16 g ai/ha, 0 is no effect, 100 is complete control; for Ryegrass, Italian plant response rating: 31 g ai/ha; for Ryegrass, Italian plant response rating / Plant response rating, Ryegrass, Italian: scale 0 to 100 (0 no effect, 100 complete control)
Summary of the method: as §2

giant foxtail [6] = assay: Test A preemergence; assay type: in vivo, Setaria faberii; details: for Foxtail, Giant plant response rating: 500 g ai/ha
Summary of the method: as §1

lambsquarters = assay: Test C preemergence; assay type: in vivo, Chenopodium album; details: for Lambsquarters plant response rating: preemergence
Summary of the method: as §2

[7] = 16 g ai/ha, scale 0 to 100 (0 no effect, 100 complete control)
[8] = 62 g ai/ha, scale 0 (no effect) to 100 (complete control)
[9] = 125 g ai/ha, scale 0 (no effect) to 100 (complete control)
[10] = postemergence, visual rating, 13 to 15 days
[11] = 125 g ai/ha, postemergence, visual rating
[12] = 0 to 100 scale where 0 is no effect and 100 is complete control
[13] = Preemergence, 62 g ai/ha, scale 0 to 100, 0 no effect, 100 complete control
[14] = Postemergence, 62 g ai/ha, 13 to 15 days

Question: Which “Plant response rating, Ducksalad” value (Heteranthera limosa) does the source give for `FC(F)(F)c1cnn(-c2c(Cl)cccc2Oc2ncc(Cl)cn2)c1` [Compound 167] here?
Answer: The value was 100.

Question: What about the “Foxtail, Giant plant response rating” value (giant foxtail [1]) of the same compound?
Answer: Its value is 90.

Question: What about the “Plant response rating, Foxtail, Giant” value (giant foxtail [1]) of the same compound?
Answer: Its value is 90.

Question: And the “Morningglory plant response rating” value (morningglory)?
Answer: The value was 80.

Question: And the “Plant response rating, Morningglory” value (morningglory)?
Answer: The value was 100.

Question: And the “Ryegrass, Italian plant response rating” value (Italian ryegrass [2]; [7])?
Answer: The value was 5.

Question: And the “Ryegrass, Italian plant response rating” value (Italian ryegrass [2]; [8])?
Answer: Its value is 80.

Question: And the “Ryegrass, Italian plant response rating” value (Italian ryegrass [2]; [9])?
Answer: Its value is 90.

Question: What about the “Velvetleaf plant response rating” value (velvetleaf; [7]) of the same compound?
Answer: Its value is 45.

Question: And the “Velvetleaf plant response rating” value (velvetleaf; [8])?
Answer: Its value is 100.

Question: And the “Velvetleaf plant response rating” value (velvetleaf; [9])?
Answer: The value was 100.

Question: And the “Pigweed plant response rating” value (pigweed)?
Answer: The value was 100.

Question: And the “Plant response rating, Pigweed” value (pigweed)?
Answer: The value was 100.

Question: What about the “Plant response rating (0 to 100), Soybean” value (soybean; postemergence) of the same compound?
Answer: The value was 20.

Question: What about the “Soybean plant response rating” value (soybean; [10]) of the same compound?
Answer: The value was 30.

Question: And the “Plant response rating, Soybean” value (soybean; [11])?
Answer: The value was 60.

Question: And the “Plant response rating, Soybean” value (soybean; Postemergence, 62 g ai/ha)?
Answer: The value was 60.

Question: What about the “Blackgrass plant response rating” value (blackgrass; [7]) of the same compound?
Answer: Its value is 30.

Question: What about the “Blackgrass plant response rating” value (blackgrass; [8]) of the same compound?
Answer: Its value is 90.

Question: What about the “Blackgrass plant response rating” value (blackgrass; [9]) of the same compound?
Answer: Its value is 90.

Question: What about the “Plant response rating, Blackgrass” value (blackgrass; 31 g ai/ha) of the same compound?
Answer: Its value is 30.

Question: And the “Barnyardgrass plant response rating” value (barnyardgrass [3])?
Answer: The value was 70.

Question: What about the “Plant response rating, Barnyardgrass” value (barnyardgrass [3]) of the same compound?
Answer: The value was 100.

Question: And the “Barnyardgrass plant response rating” value (barnyardgrass [4]; [7])?
Answer: The value was 5.

Question: What about the “Barnyardgrass plant response rating” value (barnyardgrass [4]; [8]) of the same compound?
Answer: The value was 100.

Question: What about the “Barnyardgrass plant response rating” value (barnyardgrass [4]; [9]) of the same compound?
Answer: Its value is 100.

Question: And the “Plant response rating, Barnyardgrass” value (barnyardgrass [4]; 31 g ai/ha)?
Answer: The value was 85.

Question: What about the “Wheat plant response rating” value (wheat, winter; [7]) of the same compound?
Answer: Its value is 0.

Question: And the “Wheat plant response rating” value (wheat, winter; [8])?
Answer: Its value is 5.

Question: And the “Wheat plant response rating” value (wheat, winter; [9])?
Answer: The value was 50.

Question: And the “Plant response rating (0 to 100), Johnsongrass” value (johnsongrass; postemergence)?
Answer: Its value is 5.

Question: And the “Johnsongrass plant response rating” value (johnsongrass; [10])?
Answer: The value was 15.

Question: And the “Plant response rating, Johnsongrass” value (johnsongrass; [11])?
Answer: Its value is 25.

Question: And the “Plant response rating, Johnsongrass” value (johnsongrass; Postemergence, 62 g ai/ha)?
Answer: Its value is 15.

Question: What about the “Plant response rating (0 to 100), Ryegrass, Italian” value (Italian ryegrass [5]; postemergence) of the same compound?
Answer: The value was 0.

Question: What about the “Ryegrass, Italian plant response rating” value (Italian ryegrass [5]; [10]) of the same compound?
Answer: The value was 10.

Question: What about the “Plant response rating, Ryegrass, Italian” value (Italian ryegrass [5]; [11]) of the same compound?
Answer: The value was 30.

Question: And the “Plant response rating, Ryegrass, Italian” value (Italian ryegrass [5]; Postemergence, 62 g ai/ha)?
Answer: Its value is 5.

Question: And the “Plant response rating, Foxtail, Giant” value (giant foxtail [6]; 125 g ai/ha, 0 to 100 scale where 0 is no effect and 100 is complete control)?
Answer: The value was 100.

Question: What about the “Foxtail, Giant plant response rating” value (giant foxtail [6]; [12]) of the same compound?
Answer: Its value is 100.

Question: And the “Lambsquarters plant response rating” value (lambsquarters; [7])?
Answer: Its value is 75.

Question: And the “Lambsquarters plant response rating” value (lambsquarters; [8])?
Answer: The value was 100.

Question: What about the “Lambsquarters plant response rating” value (lambsquarters; [9]) of the same compound?
Answer: Its value is 100.

Question: What does the source list for `N#Cc1cnn(-c2c(Oc3ncc(Cl)cn3)cccc2C(F)F)c1` [Compound 236]?
Answer: Plant response rating, Ducksalad (Heteranthera limosa): 100; Foxtail, Giant plant response rating (giant foxtail [1]): 90; Plant response rating, Foxtail, Giant (giant foxtail [1]): 100; Morningglory plant response rating (morningglory): 80; Plant response rating, Morningglory (morningglory): 100; Ryegrass, Italian plant response rating (Italian ryegrass [2]; [7]): 0; Ryegrass, Italian plant response rating (Italian ryegrass [2]; [9]): 85; Plant response rating, Ryegrass, Italian (Italian ryegrass [2]; [13]): 45; Velvetleaf plant response rating (velvetleaf; [7]): 65; Velvetleaf plant response rating (velvetleaf; [9]): 100; Plant response rating, Velvetleaf (velvetleaf; [13]): 100; Pigweed plant response rating (pigweed): 100; Plant response rating, Pigweed (pigweed): 100; Plant response rating (0 to 100), Soybean (soybean; postemergence): 60; Soybean plant response rating (soybean; [10]): 75; Plant response rating, Soybean (soybean; [11]): 95; Plant response rating, Soybean (soybean; [14]): 85; Blackgrass plant response rating (blackgrass; [7]): 5; Blackgrass plant response rating (blackgrass; [9]): 90; Plant response rating, Blackgrass (blackgrass; 62 g ai/ha): 90; Barnyardgrass plant response rating (barnyardgrass [3]): 100; Plant response rating, Barnyardgrass (barnyardgrass [3]): 100; Barnyardgrass plant response rating (barnyardgrass [4]; [7]): 10; Barnyardgrass plant response rating (barnyardgrass [4]; [9]): 100; Plant response rating, Barnyardgrass (barnyardgrass [4]; 62 g ai/ha): 98; Wheat plant response rating (wheat, winter; [7]): 0; Wheat plant response rating (wheat, winter; [9]): 60; Plant response rating, Wheat (wheat, winter; [13]): 0; Plant response rating (0 to 100), Johnsongrass (johnsongrass; postemergence): 10; Johnsongrass plant response rating (johnsongrass; [10]): 25; Plant response rating, Johnsongrass (johnsongrass; [11]): 20; Plant response rating, Johnsongrass (johnsongrass; [14]): 15; Plant response rating (0 to 100), Ryegrass, Italian (Italian ryegrass [5]; postemergence): 0; Ryegrass, Italian plant response rating (Italian ryegrass [5]; [10]): 0; Plant response rating, Ryegrass, Italian (Italian ryegrass [5]; [11]): 0; Plant response rating, Ryegrass, Italian (Italian ryegrass [5]; [14]): 0; Foxtail, Giant plant response rating (0 to 100 scale) (giant foxtail [6]; 125 g ai/ha): 100; Foxtail, Giant plant response rating (giant foxtail [6]; [12]): 100; Lambsquarters plant response rating (lambsquarters; [7]): 98; Lambsquarters plant response rating (lambsquarters; [9]): 100; Plant response rating, Lambsquarters (lambsquarters; [13]): 100
